Columns and labels:
[1] = test system: U251; test: cells; details: Homo sapiens, U-251, 48 h
[2] = test system: HL-60(TB); test: cells; details: Homo sapiens, HL-60, 48 h
[3] = test system: SNB-75; test: cells; details: Homo sapiens, SNB-75, 48 h
[4] = test system: MDA-MB-231/ATCC; test: NCI DTP 60 cell line screen, SRB
[5] = test system: K-562; test: cells; details: Homo sapiens, K562, 48 h
[6] = test system: 786-0; test: cells; details: Homo sapiens, 786-0, 48 h
[7] = test system: EKVX; test: cells; details: Homo sapiens, 48 h
[8] = test system: RPMI-8226; test: cells; details: Homo sapiens, RPMI-8226, 48 h
[9] = test system: SF-539; test: NCI DTP 60 cell line screen, SRB
[10] = test system: MALME-3M; test: NCI DTP 60 cell line screen, SRB; details: 48 h
[11] = test system: ACHN; test: NCI DTP 60 cell line screen, SRB; details: 48 h
[12] = test system: SF-295; test: NCI DTP 60 cell line screen, SRB
[13] = test system: HOP-62; details: HOP-62 (Non-Small Cell Lung Cancer), 48 h, SRB
[14] = test system: SR; details: SR (Leukemia), 48 h, SRB
[15] = test system: NCI/ADR-Res; test: NCI DTP 60 cell line screen, SRB; details: 48 h
[16] = test system: HOP-92; test: NCI DTP 60 cell line screen, SRB
[17] = test system: SK-MEL-5; test: NCI DTP 60 cell line screen, SRB
[18] = test system: IGROV1; test: NCI DTP 60 cell line screen, SRB
[19] = test system: T-47D; test: cells; details: Homo sapiens, T47D, 48 h
[20] = test system: OVCAR-4; test: NCI DTP 60 cell line screen, SRB
[21] = test system: SW-620; test: cells; details: Homo sapiens, SW-620, 48 h
[22] = test system: BT-549; test: NCI DTP 60 cell line screen, SRB
[23] = test system: SNB-19; test: NCI DTP 60 cell line screen, SRB
[24] = test system: U251; details: U251 (CNS Cancer), 48 h, SRB
[25] = test system: A549/ATCC; test: cells; details: Homo sapiens, A549, 48 h
[26] = test system: HCT-116; test: cells; details: Homo sapiens, HCT-116, 48 h
[27] = test system: CAKI-1; test: NCI DTP 60 cell line screen, SRB

O=C1NC(=S)S/C1=C\C(Cl)=C\c1ccc([N+](=O)[O-])cc1 [Compound 2b, 5-[(Z,2Z)-2-Chloro-3-(4-nitrophenyl)-2-propenylidene]-2-thioxo-4-thiazolidinone]
GI50 [1]: 3.09 µM | CC50 ([1]; read-out: LC50): 22.1 µM | GI50 [2]: 1.21 µM | CC50 ([2]; read-out: LC50): > 50 µM | GI50 [3]: 7.59 µM | CC50 ([3]; read-out: LC50): > 50 µM | GI50 ([4]; Homo sapiens, MDA-MB-231, 48 h): 8.16 µM | CC50 ([4]; Homo sapiens, MDA-MB-231, 48 h, read-out: LC50): > 50 µM | TGI ([4]; MDA-MB-231/ATCC (Breast Cancer), 48 h, SRB): 28.1 µM | GI50 [5]: 1.44 µM | CC50 ([5]; read-out: LC50): > 50 µM | GI50 [6]: 9.4 µM | CC50 ([6]; read-out: LC50): 37.6 µM | GI50 [7]: 2.76 µM | CC50 ([7]; read-out: LC50): > 50 µM | GI50 [8]: 1.54 µM | CC50 ([8]; read-out: LC50): > 50 µM | GI50 ([9]; Homo sapiens, SF-539, 48 h): 9.39 µM | CC50 ([9]; Homo sapiens, SF-539, 48 h, read-out: LC50): > 50 µM | TGI ([9]; SF-539 (CNS Cancer), 48 h, SRB): 23.1 µM | GI50 ([10]; Homo sapiens, Malme-3M): 4.93 µM | CC50 ([10]; Homo sapiens, Malme-3M, read-out: LC50): 44.6 µM | TGI ([10]; MALME-3M (Melanoma), SRB): 14.9 µM | TGI ([11]; ACHN (Renal Cancer), SRB): 11.8 µM | GI50 ([11]; Homo sapiens, ACHN): 3.64 µM | CC50 ([11]; Homo sapiens, ACHN, read-out: LC50): 31.7 µM | GI50 ([12]; Homo sapiens, SF-295, 48 h): 8.46 µM | CC50 ([12]; Homo sapiens, SF-295, 48 h, read-out: LC50): > 50 µM | TGI ([12]; SF-295 (CNS Cancer), 48 h, SRB): 37.9 µM | TGI [13]: 33.1 µM | TGI [14]: 7.96 µM | GI50 ([15]; Homo sapiens, NCI/ADR-RES): 5.71 µM | CC50 ([15]; Homo sapiens, NCI/ADR-RES, read-out: LC50): > 50 µM | TGI ([15]; NCI/ADR-Res (Breast Cancer), SRB): 18.3 µM | TGI ([16]; HOP-92 (Non-Small Cell Lung Cancer), 48 h, SRB): > 50 µM | GI50 ([16]; Homo sapiens, HOP-92, 48 h): 8.48 µM | CC50 ([16]; Homo sapiens, HOP-92, 48 h, read-out: LC50): > 50 µM | GI50 ([17]; Homo sapiens, SK-MEL-5, 48 h): 3.82 µM | CC50 ([17]; Homo sapiens, SK-MEL-5, 48 h, read-out: LC50): 24 µM | TGI ([17]; SK-MEL-5 (Melanoma), 48 h, SRB): 10.6 µM | GI50 ([18]; Homo sapiens, IGROV-1, 48 h): 7.28 µM | CC50 ([18]; Homo sapiens, IGROV-1, 48 h, read-out: LC50): > 50 µM | TGI ([18]; IGROV1 (Ovarian Cancer), 48 h, SRB): 21.1 µM | GI50 [19]: 3.21 µM | CC50 ([19]; read-out: LC50): > 50 µM | GI50 ([20]; Homo sapiens, OVCAR-4, 48 h): 1.95 µM | CC50 ([20]; Homo sapiens, OVCAR-4, 48 h, read-out: LC50): > 50 µM | TGI ([20]; OVCAR-4 (Ovarian Cancer), 48 h, SRB): 11.7 µM | GI50 [21]: 1.94 µM | CC50 ([21]; read-out: LC50): 23.5 µM | TGI ([22]; BT-549 (Breast Cancer), 48 h, SRB): 4.74 µM | GI50 ([22]; Homo sapiens, BT-549, 48 h): 1.47 µM | CC50 ([22]; Homo sapiens, BT-549, 48 h, read-out: LC50): 27.2 µM | GI50 ([23]; Homo sapiens, SNB-19, 48 h): 8.1 µM | CC50 ([23]; Homo sapiens, SNB-19, 48 h, read-out: LC50): > 50 µM | TGI ([23]; SNB-19 (CNS Cancer), 48 h, SRB): 21.4 µM | TGI [24]: 9.73 µM | GI50 [25]: 8.18 µM | CC50 ([25]; read-out: LC50): > 50 µM | GI50 [26]: 2.93 µM | CC50 ([26]; read-out: LC50): 33.7 µM | TGI ([27]; CAKI-1 (Renal Cancer), 48 h, SRB): 25.2 µM | GI50 ([27]; Homo sapiens, CAKI-1, 48 h): 7.14 µM | CC50 ([27]; Homo sapiens, CAKI-1, 48 h, read-out: LC50): > 50 µM

Source: publication PMC8161026, “Synthesis and Anticancer Activity Evaluation of 5-[2-Chloro-3-(4-nitrophenyl)-2-propenylidene]-4-thiazolidinones” (Molecules, 2021)
